Reference: ChEMBL document CHEMBL1201862, “PubChem BioAssay data set” (2004)
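Interpolation was linear, between the two tested concentrations surrounding the appropriate level; five concentrations were tested over 48 hours in 96-well plates. At the GI50, growth is halved.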 Active and inactive are the calls of the source. No stated cut-off is given here; in the data, active = GI50 up to about 1.1 µM and inactive = higher.

What was measured:
Experiment in all cases: DTP human tumour cell line panel, 48 h
U-251 = system: U-251
NCI-H522 = system: NCI-H522
SK-MEL-28 = system: SK-MEL-28
CAKI-1 = system: CAKI-1
MOLT-4 = system: MOLT-4
NCI-H23 = system: NCI-H23
SN12C = system: SN12C
SR = system: SR
SK-MEL-5 = system: SK-MEL-5
SNB-19 = system: SNB-19
M14 = system: M14
SK-OV-3 = system: SK-OV-3
HCT-15 = system: HCT-15
K562 = system: K562
COLO 205 = system: COLO 205
HCC 2998 = system: HCC 2998
MCF7 = system: MCF7
MDA-MB-435 = system: MDA-MB-435
RXF 393 = system: RXF 393
HOP-92 = system: HOP-92

Row | SMILES | GI50 (U-251) | GI50 (NCI-H522) | GI50 (SK-MEL-28) | GI50 (CAKI-1) | GI50 (MOLT-4) | GI50 (NCI-H23) | GI50 (SN12C) | GI50 (SR) | GI50 (SK-MEL-5) | GI50 (SNB-19) | GI50 (M14) | GI50 (SK-OV-3) | GI50 (HCT-15) | GI50 (K562) | GI50 (COLO 205) | GI50 (HCC 2998) | GI50 (MCF7) | GI50 (MDA-MB-435) | GI50 (RXF 393) | GI50 (HOP-92)
1 | O=C(Nc1ccc(Br)c2ccccc12)c1ccc2ccccc2c1O | 1.73 µM (inactive) | 1.71 µM (inactive) | 4.7 µM (inactive) | 3.95 µM (inactive) | 2.32 µM (inactive) | 1.9 µM (inactive) | 3.39 µM (inactive) | 6.44 µM (inactive) | 1.61 µM (inactive) | 4.17 µM (inactive) | 4.63 µM (inactive) | 2.75 µM (inactive) | 2.26 µM | 2.55 µM (inactive) | 2.11 µM (inactive) | 5.64 µM (inactive) | 2.73 µM (inactive) |  |  | 
2 | O=C(Nn1c(-c2cccs2)nc2ccc(I)cc2c1=O)c1ccccc1 | 24.7 µM (inactive) | 22.1 µM (inactive) | 24.7 µM (inactive) | 21.9 µM (inactive) | 41.3 µM (inactive) | 21.2 µM (inactive) | 35.6 µM (inactive) | 23.6 µM (inactive) | 21.9 µM (inactive) | 21.3 µM (inactive) | 36.3 µM (inactive) |  | 30.6 µM |  | 30.7 µM (inactive) | 22 µM (inactive) |  | 20.6 µM (inactive) | 35.4 µM (inactive) | 17.8 µM (inactive)
3 | CCN(CC)CCN(C(=O)C(C)(C)C)c1ccccc1N | > 100 µM (inactive) | > 100 µM (inactive) | > 100 µM (inactive) | > 100 µM (inactive) | > 100 µM (inactive) | > 100 µM (inactive) | > 100 µM (inactive) | > 100 µM (inactive) | > 100 µM (inactive) | > 100 µM (inactive) | > 100 µM (inactive) | > 100 µM (inactive) | > 100 µM | > 100 µM (inactive) |  |  | > 100 µM (inactive) |  | > 100 µM (inactive) | > 100 µM (inactive)
4 | COC(=O)c1cc(-c2c[nH]cc2C(=O)OCc2ccccc2)cn1S(=O)(=O)c1ccc(C)cc1 | > 10 µM (inactive) | > 100 µM (inactive) |  | > 100 µM (inactive) | > 100 µM (inactive) | 6.61 µM (inactive) | > 100 µM (inactive) | > 100 µM (inactive) | 4.16 µM (inactive) | > 100 µM (inactive) | > 100 µM (inactive) | > 100 µM (inactive) | > 100 µM | 7.5 µM (inactive) | > 100 µM (inactive) | > 100 µM (inactive) | 22.3 µM (inactive) |  | > 100 µM (inactive) | 
5 | Cn1c(COC(=O)Nc2ccccc2)c(COC(=O)Nc2ccccc2)c2ccc3cc(Cl)c(Cl)cc3c21 | 1.95 µM (inactive) |  | 3.61 µM (inactive) | 1.06 µM (active) | 1.1 µM (active) | 2.63 µM (inactive) | 4.07 µM (inactive) |  | 4.62 µM (inactive) | 4.24 µM (inactive) | 7.71 µM (inactive) | 20.9 µM (inactive) | 4.4 µM | 1.07 µM (active) | 3.39 µM (inactive) | 5.5 µM (inactive) | 2.14 µM (inactive) | 7.87 µM (inactive) | 9.64 µM (inactive) | 2.1 µM (inactive)
6 | O=C(CSc1nc2ccc(Cl)cc2c(=O)n1-c1ccccc1)N/N=C1\C(=O)Nc2ccc(F)cc21 | 1.74 µM (inactive) | 1.81 µM (inactive) | 3.05 µM (inactive) | 4.81 µM (inactive) | 2.88 µM (inactive) | 2.92 µM (inactive) | 2.08 µM (inactive) |  | 3.13 µM (inactive) | 2.97 µM (inactive) | 3.21 µM (inactive) | 8.34 µM (inactive) | 1.96 µM | 3.72 µM (inactive) | 2.21 µM (inactive) | 2.69 µM (inactive) | 2.1 µM (inactive) | 2.43 µM (inactive) | 1.76 µM (inactive) | 2.49 µM (inactive)
7 | CCN(CCCN(CC)C(=O)N[C@@H](Cc1ccccc1)C(=O)NC)C(=O)N[C@@H](Cc1ccccc1)C(=O)NC | > 100 µM (inactive) | > 100 µM (inactive) | > 100 µM (inactive) | > 100 µM (inactive) |  | > 100 µM (inactive) |  | > 100 µM (inactive) | > 100 µM (inactive) | > 100 µM (inactive) | > 100 µM (inactive) | > 100 µM (inactive) | > 100 µM |  | > 100 µM (inactive) | > 100 µM (inactive) |  | > 100 µM (inactive) | > 100 µM (inactive) | > 100 µM (inactive)
8 | O=C(n1c(=O)n(-c2ccc([N+](=O)[O-])cc2)c(=O)n1C(=O)C(Cl)(Cl)Cl)C(Cl)(Cl)Cl | > 100 µM (inactive) | > 100 µM (inactive) | > 100 µM (inactive) | > 100 µM (inactive) | > 10 µM (inactive) | > 100 µM (inactive) | > 100 µM (inactive) |  | > 100 µM (inactive) | > 100 µM (inactive) | > 100 µM (inactive) | > 100 µM (inactive) | > 100 µM | > 10 µM (inactive) | > 100 µM (inactive) | > 100 µM (inactive) | 87.3 µM (inactive) | > 100 µM (inactive) | > 100 µM (inactive) | 
9 | Nc1cc2c(C3OC(CO)C(O)C3O)n[nH]c2c(=S)[nH]1 (stereo unspecified) | > 100 µM (inactive) | > 100 µM (inactive) | > 100 µM (inactive) | 54.3 µM (inactive) | > 100 µM (inactive) | > 100 µM (inactive) | > 100 µM (inactive) | > 100 µM (inactive) | > 100 µM (inactive) | > 100 µM (inactive) | > 100 µM (inactive) | > 100 µM (inactive) | 94 µM | > 100 µM (inactive) | > 100 µM (inactive) | > 100 µM (inactive) |  |  | 32.7 µM (inactive) | > 100 µM (inactive)
10 | COc1cc(C2=NNC(=O)c3ccccc3N2c2nc(-c3cccs3)nc3ccc(Br)cc23)cc(OC)c1OC | 6.1 µM (inactive) | 9.06 µM (inactive) | 13.3 µM (inactive) | 15.3 µM (inactive) |  | 7.11 µM (inactive) | 18.9 µM (inactive) |  | 10.5 µM (inactive) | 22.6 µM (inactive) | 17.1 µM (inactive) | 65.6 µM (inactive) | 4.38 µM |  | 5.24 µM (inactive) |  | 2.33 µM (inactive) | 6.82 µM (inactive) |  | 4.83 µM (inactive)
11 | O=C1NC2(NC(=O)C1=O)Nc1ccccc1S2 | 30.9 µM (inactive) | 22.1 µM (inactive) | 43.5 µM (inactive) | 62.5 µM (inactive) | 27.5 µM (inactive) | > 63 µM (inactive) | 23.8 µM (inactive) | 24.5 µM (inactive) | 32.7 µM (inactive) | > 100 µM (inactive) | 44.5 µM (inactive) | > 100 µM (inactive) | 33.7 µM | 39.8 µM (inactive) | 21.6 µM (inactive) | > 65.5 µM (inactive) |  |  | > 54.6 µM (inactive) | > 100 µM (inactive)
12 | O=C(Nc1ccc(Cl)cc1)NS(=O)(=O)c1c(-c2ccccc2)oc2ccccc2c1=O | 58.2 µM (inactive) | 1.97 µM (inactive) | > 100 µM (inactive) | 52.1 µM (inactive) | 98.6 µM (inactive) | 67 µM (inactive) | > 100 µM (inactive) | 24.2 µM (inactive) | > 100 µM (inactive) | > 100 µM (inactive) |  | > 100 µM (inactive) | 50.6 µM | 48 µM (inactive) | 56.4 µM (inactive) | 54.2 µM (inactive) |  | 75 µM (inactive) | > 100 µM (inactive) | 89.3 µM (inactive)
13 | CC(=O)OCC1OC(n2cc(I)c(=O)[nH]c2=O)C(OC(C)=O)C(OC(C)=O)C1OC(C)=O (stereo unspecified) | > 100 µM (inactive) | > 100 µM (inactive) | > 100 µM (inactive) | > 100 µM (inactive) | > 100 µM (inactive) | > 100 µM (inactive) | > 100 µM (inactive) | > 100 µM (inactive) | > 100 µM (inactive) | > 100 µM (inactive) | > 100 µM (inactive) | > 100 µM (inactive) | > 100 µM | > 100 µM (inactive) | > 100 µM (inactive) | > 100 µM (inactive) |  |  | > 100 µM (inactive) | > 100 µM (inactive)
14 | C[C@@H]1OC(=O)C[C@H]2CC(=O)N(CCc3cn(S(=O)(=O)C(F)(F)F)c4ccccc34)C[C@@H]21 | > 100 µM (inactive) | > 100 µM (inactive) | > 100 µM (inactive) | > 100 µM (inactive) | > 100 µM (inactive) | > 100 µM (inactive) |  |  | > 100 µM (inactive) | > 100 µM (inactive) | > 100 µM (inactive) | > 100 µM (inactive) | > 100 µM | > 100 µM (inactive) | > 100 µM (inactive) | > 100 µM (inactive) | > 100 µM (inactive) | > 100 µM (inactive) | > 100 µM (inactive) | > 100 µM (inactive)
15 | O=C(/C=C/c1ccc(O)cc1)c1ccc2c(c1)OCO2 | 18.4 µM (inactive) | 12.8 µM (inactive) | 20.9 µM (inactive) | 4.56 µM (inactive) | 13.5 µM (inactive) | 18.2 µM (inactive) | 15.9 µM (inactive) | 10.2 µM (inactive) | 16 µM (inactive) | 17.1 µM (inactive) | 18.5 µM (inactive) | 26.1 µM (inactive) | 26.1 µM | 20.6 µM (inactive) | 14.7 µM (inactive) | 20.8 µM (inactive) |  | 22.8 µM (inactive) | 19.3 µM (inactive) | 22.4 µM (inactive)
16 | CCOC(=O)/C(C#N)=C/c1ccnc2ccccc12 | > 100 µM (inactive) | > 100 µM (inactive) | 88.5 µM (inactive) | > 100 µM (inactive) | 63.5 µM (inactive) | 31.8 µM (inactive) | 76.4 µM (inactive) | 2.28 µM (inactive) | 31.7 µM (inactive) | 81.7 µM (inactive) | 56.9 µM (inactive) | > 100 µM (inactive) | 31.9 µM |  | > 100 µM (inactive) | > 100 µM (inactive) |  | 37.2 µM (inactive) | > 100 µM (inactive) | 40.2 µM (inactive)
